# Reference: PubChem BioAssay AID1963839 (Molecular Pharmacology Branch, DTP, NCI, 2024)
# Test system: 817829-284-R-J1-PDC complex spheroid viability
# Assay: Anticancer human tumor 817829-284-R-J1-PDC patient-derived colon adenocarcinoma cell line growth inhibition [POLQ]
# Conditions: for IC50: curve of first compound; for viability, T/C: stronger effect = lower value
# Procedure: Multicellular complex tumor spheroid response to Polymerase (POL) inhibitors (novobiocin, ART-558, RP6685) in combination with a variety of drugs and investigational agents in selected tumor cell lines
# The POL inhibitors (novobiocin, ART-558, and RP6685) were evaluated both individually and in combination with standard of care and investigational anticancer small molecules within a complex spheroid model of solid tumors. . Complex spheroids include a stromal component modeled by human endothelial cells (HUVEC) and fibroblasts modeled by human mesenchymal stem cells (MSCs). The concentration ranges selected for each drug and investigational agent were based upon clinically achievable concentrations if the clinical Cmax of the agent was known.
# Compounds. The drugs and investigational agents: novobiocin (NSC847541), ART-558 (NSC835418), RP-6685 (NSC848927), peposertib (NSC802822), ceralasertib (NSC780249), elimusertib (NSC800525), camonsertib (NSC841442), AZD-1390 (NSC803789), olaparib (NSC753686), talazoparib (NSC767125), rucaparib (NSC756644), sotorasib (NSC818433), MRTX-1133 (NSC836407), SN-38 (NSC673596), topotecan (NSC609699), epotoside (NSC141540), doxorubicin (NSC123127), gemcitabine (NSC613327), 5-fluorouracil (NSC19893), paclitaxel (NSC125973), vemurafenib (NSC761431), MSA-2 (NSC828583), SN-011 (NSC837082), adavosertib (NSC754352), prexasertib (NSC758257), carboplatin (NSC241240) and oxaliplatin (NSC266046), were obtained from the National Cancer Institute (NCI) Developmental Therapeutics Program Chemical Repository (21). The FDA-approved anticancer drug set is available from the Developmental Therapeutics Program at https://dtp.cancer.gov/organization/dscb/obtaining/. […] The stock solutions were prepared in dimethyl sulfoxide (DMSO, Sigma-Aldrich, St. Louis, MO, cat. D2650), except for the platinum compounds which were prepared in saline (Quality Biological, Gaithersburg, MD, cat. 114-055-101), at 800-fold the tested concentration and stored at -70 degrees C prior to their use. All drugs and investigational agents were tested over a range starting from a high concentration at or near the clinical Cmax and decreasing in half-log increments. If the clinical Cmax for an agent had not been determined, the highest concentration tested was 10 microM, except for SN-38, which was tested at a high concentration of 1 microM.
# Cell Culture. All cells were maintained in an incubator at 37 degrees C and 5% CO2 with 95% humidity. The PDC lines were cultured according to standard operating procedures established by the NCI PDMR (https://pdmr.cancer.gov). Table 3 of the manuscript, lists the cell lines along with the number of the three cell types plated to form the mct-spheroids and media for tumor cell growth. After thawing, all PDC lines, except 997537-175-T-J1-PDC and 415267-285-R-J2-PDC, were cultured in Matrigel-coated flasks prepared with a working solution of 1X Ham's F-12 nutrient mix, without supplementation (Thermo Fisher Scientific, cat. 11765054), 100 U/mL penicillin-streptomycin (Thermo Fisher Scientific, cat. 15140122), and 2.5% Matrigel (Corning Inc., Corning, NY, cat. 354248) for the first three passages. The two PDC lines 997537-175-T-J1-PDC and 415267-285-R-J2-PDC were cultured on uncoated flasks. The 857933-349-R-J2-PDC line was cultured in 6C/Colon 1B media containing advanced DMEM/F-12 (Thermo Fisher Scientific, cat. 12634028), 10 mM HEPES (Thermo Fisher Scientific, cat. 15630080), 1X GlutaMAX supplement (Thermo Fisher Scientific, cat. 35050061), 0.1 mg/mL primocin (InvivoGen, San Diego, CA, cat. ant-pm-2), 10% defined fetal bovine serum, heat inactivated (HyClone Laboratories Inc., Logan, UT, cat. SH30070.03HI), 50% L-WRN conditioned media (ATCC, cat. CRL-3276), 1.25 mM N-Acetyl-L-cysteine (Sigma-Aldrich, cat. A9165), 10 mM nicotinamide (Sigma-Aldrich, cat. N0636), 1X B-27 supplement (Thermo Fisher Scientific, cat. 17504044), 1X N-2 supplement (Thermo Fisher Scientific, cat. […]
# [1] = second compound 0.0316 µM, first compound 0.0316 µM
# [2] = second compound 0.0316 µM, first compound 0.1 µM
# [3] = second compound 0.0316 µM, first compound 0.316 µM
# [4] = second compound 0.0316 µM, first compound 1 µM
# [5] = second compound 0.0316 µM, first compound 3.16 µM
# [6] = second compound 0.0316 µM, first compound 10 µM
# [7] = second compound 0.1 µM, first compound 0.0316 µM
# [8] = second compound 0.1 µM, first compound 0.1 µM
# [9] = second compound 0.1 µM, first compound 0.316 µM
# [10] = second compound 0.1 µM, first compound 1 µM
# [11] = second compound 0.1 µM, first compound 3.16 µM
# [12] = second compound 0.1 µM, first compound 10 µM
# [13] = second compound 0.316 µM, first compound 0.0316 µM
# [14] = second compound 0.316 µM, first compound 0.1 µM
# [15] = second compound 0.316 µM, first compound 0.316 µM
# [16] = second compound 0.316 µM, first compound 1 µM
# [17] = second compound 0.316 µM, first compound 3.16 µM
# [18] = second compound 0.316 µM, first compound 10 µM
# [19] = second compound 1 µM, first compound 0.0316 µM
# [20] = second compound 1 µM, first compound 0.1 µM
# [21] = second compound 1 µM, first compound 0.316 µM
# [22] = second compound 1 µM, first compound 1 µM
# [23] = second compound 1 µM, first compound 3.16 µM
# [24] = second compound 1 µM, first compound 10 µM
# [25] = second compound 3.16 µM, first compound 0.0316 µM
# [26] = second compound 3.16 µM, first compound 0.1 µM
# [27] = second compound 3.16 µM, first compound 0.316 µM
# [28] = second compound 3.16 µM, first compound 1 µM
# [29] = second compound 3.16 µM, first compound 3.16 µM
# [30] = second compound 3.16 µM, first compound 10 µM
# [31] = second compound 10 µM, first compound 0.0316 µM
# [32] = second compound 10 µM, first compound 0.1 µM
# [33] = second compound 10 µM, first compound 0.316 µM
# [34] = second compound 10 µM, first compound 1 µM
# [35] = second compound 10 µM, first compound 3.16 µM
# [36] = second compound 10 µM, first compound 10 µM
# 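Further: spheroids exposed to compounds for 7 days.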
# 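Wherever viability, T/C is given: 100% = DMSO vehicle-treated spheroids.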
smiles,measurement,setting,value
C=CC(=O)N1CCN(c2nc(=O)n(-c3c(C)ccnc3C(C)C)c3nc(-c4c(O)cccc4F)c(F)cc23)C(C)C1 (centres undefined) + COC1C(OC(N)=O)C(O)C(Oc2ccc3c(O)c(NC(=O)c4ccc(O)c(CC=C(C)C)c4)c(=O)oc3c2C)OC1(C)C,IC50,second compound 0.0316 µM,> 10000 nM
same,IC50,second compound 0.1 µM,> 10000 nM
same,IC50,second compound 0.316 µM,> 10000 nM
same,IC50,second compound 1 µM,> 10000 nM
same,IC50,second compound 3.16 µM,> 10000 nM
same,IC50,second compound 10 µM,> 10000 nM
same,"viability, T/C",[1],87.6%
same,"viability, T/C",[2],125%
same,"viability, T/C",[3],89.3%
same,"viability, T/C",[4],99.9%
same,"viability, T/C",[5],121%
same,"viability, T/C",[6],67.3%
same,"viability, T/C",[7],124%
same,"viability, T/C",[8],100%
same,"viability, T/C",[9],133%
same,"viability, T/C",[10],83.3%
same,"viability, T/C",[11],118%
same,"viability, T/C",[12],76.2%
same,"viability, T/C",[13],115%
same,"viability, T/C",[14],127%
same,"viability, T/C",[15],104%
same,"viability, T/C",[16],97.4%
same,"viability, T/C",[17],95.7%
same,"viability, T/C",[18],59.6%
same,"viability, T/C",[19],132%
same,"viability, T/C",[20],104%
same,"viability, T/C",[21],77.8%
same,"viability, T/C",[22],140%
same,"viability, T/C",[23],89.3%
same,"viability, T/C",[24],51.2%
same,"viability, T/C",[25],102%
same,"viability, T/C",[26],108%
same,"viability, T/C",[27],123%
same,"viability, T/C",[28],97%
same,"viability, T/C",[29],80.4%
same,"viability, T/C",[30],72.2%
same,"viability, T/C",[31],78.8%
same,"viability, T/C",[32],96.8%
same,"viability, T/C",[33],80.7%
same,"viability, T/C",[34],98.2%
same,"viability, T/C",[35],107%
same,"viability, T/C",[36],57.3%
CC1COCCN1c1cc(C2(S(C)(=N)=O)CC2)nc(-c2ccnc3[nH]ccc23)n1 (centres undefined) + COC1C(OC(N)=O)C(O)C(Oc2ccc3c(O)c(NC(=O)c4ccc(O)c(CC=C(C)C)c4)c(=O)oc3c2C)OC1(C)C,IC50,second compound 0.0316 µM,338 nM
same,IC50,second compound 0.1 µM,422 nM
same,IC50,second compound 0.316 µM,363 nM
same,IC50,second compound 1 µM,440 nM
same,IC50,second compound 3.16 µM,169 nM
same,IC50,second compound 10 µM,241 nM
same,"viability, T/C",[1],85.6%
same,"viability, T/C",[2],74.6%
same,"viability, T/C",[3],53.1%
same,"viability, T/C",[4],19.9%
same,"viability, T/C",[5],6.56%
same,"viability, T/C",[6],4.6%
same,"viability, T/C",[7],98.5%
same,"viability, T/C",[8],105%
same,"viability, T/C",[9],58.7%
same,"viability, T/C",[10],19.9%
same,"viability, T/C",[11],7.9%
same,"viability, T/C",[12],4.68%
same,"viability, T/C",[13],92.7%
same,"viability, T/C",[14],76.3%
same,"viability, T/C",[15],56.8%
same,"viability, T/C",[16],21%
same,"viability, T/C",[17],6.66%
same,"viability, T/C",[18],4.27%
same,"viability, T/C",[19],94.5%
same,"viability, T/C",[20],110%
same,"viability, T/C",[21],59.2%
same,"viability, T/C",[22],23.4%
same,"viability, T/C",[23],9.79%
same,"viability, T/C",[24],4.86%
same,"viability, T/C",[25],89.9%
same,"viability, T/C",[26],60.2%
same,"viability, T/C",[27],37.9%
same,"viability, T/C",[28],20.8%
same,"viability, T/C",[29],8.42%
same,"viability, T/C",[30],4.19%
same,"viability, T/C",[31],111%
same,"viability, T/C",[32],63.3%
same,"viability, T/C",[33],51.7%
same,"viability, T/C",[34],24.6%
same,"viability, T/C",[35],9.19%
same,"viability, T/C",[36],4.6%
